Source: PMC6152127, “Facile Synthesis of Novel Coumarin Derivatives, Antimicrobial Analysis, Enzyme Assay, Docking Study, ADMET Prediction and Toxicity Study” (Molecules : A Journal of Synthetic Chemistry and Natural …, 2017)
≈ marks a conversion by molar mass, not a printed value.

Legend:
Swiss albino mice = test: In vivo acute oral toxicity study and behavioral study (OECD guideline no. 425); design: key to Straub Tail / Pilo Erection / Convulsions / Normal Motor Activity / Stereotypy / Tremors / Sedation / Hypnosis / Muscle Spasms / Toxicity / Deaths / Eye Lacrimation / Salivation / Diarrhea / Respiration Problems: N: no; Y: yes
Method: In vivo acute oral toxicity study and gross behavioral studies of the newly synthesized compounds 4e and 4k is shown in Table 5.
425 using Swiss albino mice (18–22 gm weight) quarantined at animal house at Y.B. Chavan College of Pharmacy, Aurangabad IAEC approval number CPCSEA/IAEC/P’col-52/2015-16/115. Each group consists of six mice (overnight fasted) and kept in colony cage at 25 ± 2 °C with 55% relative humidity and 12 h of light and dark cycle. A specified dose of 100, 250, 500, 750, 1000, 1500 and 2000 mg/kg body weight of mice was administered orally as a single dose. The acute toxic symptoms and the behavioral changes produced by the synthesized compounds were observed continuously for 4 h periods at 8th, 12th and 24th h on set of toxic symptoms and the gross behavioral changes were also recorded. These animals were maintained for further 10 days with observation made daily.

[1] = tested on: Candida glabrata (NCYC-388); test: In vitro antifungal activity, MIC, agar method (CLSI); type: cell-based; settings: Nakaseomyces glabratus; average of three readings
Method: (§1) The newly synthesized 3-((dicyclohexylamino)(substituted phenyl/heteryl)methyl)-4-hydroxy-2H-chromen-2-one derivatives 4a–o were screened for their in vitro antifungal activity against different yeast and filamentous fungal pathogens. […] Dimethyl sulfoxide (DMSO) was used as solvent control.
(§2) All the synthesized compounds were screened for their in vitro antifungal and antibacterial activity. The antibacterial activity was evaluated against three human pathogenic bacterial strains: Escherichia coli (NCIM-2256), Bacillus subtilis (NCIM-2063) and Staphylococcus aureus (NCIM-2901). The antifungal activity was evaluated against seven human pathogenic fungal strains: Candida albicans (NCIM-3471), Candida glabrata (NCYC-388), Fusarium oxysporum (NCIM-1332), Aspergillus fumigates (NCIM-902), Aspergillus flavus (NCIM-539), Aspergillus niger (NCIM-1196) and Cryptococcus neoformans (NCIM-576), which are often encountered clinically. […] Minimum inhibitory concentration (MIC) values were determined as per CLSI guidelines. Dimethyl sulfoxide (DMSO) was used as solvent control.
(§3) Antifungal activity was determined as per CLSI (formerly, NCCLS) guidelines. […] The medium yeast nitrogen base was dissolved in phosphate buffer pH 7 and it was autoclaved at 110 °C for 10 min. With each set a growth control without the antifungal agent and solvent control DMSO were included. The fungal strains were freshly sub cultured on to Sabouraud dextrose agar (SDA) and incubated at 25 °C for 72 h. The fungal cells were suspended in sterile distilled water and diluted to get 10^5 cells/mL. Ten μL of the standardized suspension was inoculated onto the control plates and the media incorporated with the antifungal agents. The inoculated plates were incubated at 25 °C for 48 h. The readings were taken at the end of 48 h and 72 h. The MIC was the lowest concentration of drug preventing growth of macroscopically visible colonies on drug containing plates when there was visible growth on the drug free control plates.

[2] = tested on: Aspergillus flavus (NCIM-539); test: as above; type: cell-based; settings: NCIM539, average of three readings
Method: as §1, §2, §3

[3] = tested on: Candida albicans (NCIM-3471); test: as above; type: cell-based; settings: NCIM3471, average of three readings
Method: as §1, §2, §3

[4] = tested on: Fusarium oxysporum (NCIM-1332); test: as above; type: cell-based; settings: NCIM1332, average of three readings
Method: as §1, §2, §3

[5] = tested on: Aspergillus fumigates (NCIM-902); test: as above; type: cell-based; settings: NCIM902, average of three readings
Method: as §1, §2, §3

[6] = tested on: Aspergillus niger (NCIM-1196); test: as above; type: cell-based; settings: NCIM1196, average of three readings
Method: as §1, §2, §3

[7] = tested on: Cryptococcus neoformans (NCIM-576); test: as above; type: cell-based; settings: NCIM576, average of three readings
Method: as §1, §2, §3

[8] = tested on: Bacillus subtilis (NCIM-2063); test: In vitro antibacterial activity, MIC; type: cell-based; settings: average of three readings; for MIC: Bacillus subtilis, NCIM2063
Method: (§4) The newly synthesized compounds 4a–o were screened for their in vitro antibacterial activity against the three different bacterial strains. Minimum inhibitory concentration (MIC) values for antibacterial activity were determined by standard agar method using Ampicillin as standard drug. Dimethyl sulfoxide (DMSO) was used as solvent control. […] Compound 4e bearing a 2,4-difluoro group on the phenyl ring was 48 µg/mL for E. coli, 50 µg/mL for B. subtilis and 52 µg/mL for S. aureus.
(§5) All the synthesized compounds were screened for their in vitro antifungal and antibacterial activity. The antibacterial activity was evaluated against three human pathogenic bacterial strains: Escherichia coli (NCIM-2256), Bacillus subtilis (NCIM-2063) and Staphylococcus aureus (NCIM-2901). The antifungal activity was evaluated against seven human pathogenic fungal strains: Candida albicans (NCIM-3471), Candida glabrata (NCYC-388), Fusarium oxysporum (NCIM-1332), Aspergillus fumigates (NCIM-902), Aspergillus flavus (NCIM-539), Aspergillus niger (NCIM-1196) and Cryptococcus neoformans (NCIM-576), which are often encountered clinically. Miconazole was used as standard drug. Minimum inhibitory concentration (MIC) values were determined as per CLSI guidelines. Dimethyl sulfoxide (DMSO) was used as solvent control.
(§6) All the synthesized compounds 4a–o were screened for their in vitro antibacterial activity. Minimum inhibitory concentration (MIC) values were determined using method recommended by National Committee for Clinical Laboratory Standards (NCCLS). In vitro antibacterial activities of the synthesized compounds 4a–o were tested in Nutrient Broth (NB) for bacteria by the two fold serial dilution method. Seeded broth (broth containing microbial spores) was prepared in NB from 24 h old bacterial cultures on nutrient agar (Hi-media) at 37± 1 °C. The bacterial suspension was adjusted with sterile saline to a concentration of 1× 10^−4–10^−5 C.F.U. The synthesized compounds and standard drug Ampicillin were prepared by two fold serial dilutions to obtain the required concentrations of 400, 200, 100, 50, 25, 12.5, 6.25 and 3.13 μg/mL. The tubes were incubated in BOD incubators at 37± 1 °C for bacteria. The MICs were recorded by visual observations after 24 h (for bacteria) of incubation.

[9] = tested on: Escherichia coli (NCIM-2256); test: In vitro antibacterial activity, MIC; type: cell-based; settings: average of three readings; for MIC: Escherichia coli, NCIM2256
Method: as §4, §5, §6

[10] = tested on: Staphylococcus aureus (NCIM-2901); test: In vitro antibacterial activity, MIC; type: cell-based; settings: average of three readings; for MIC: Staphylococcus aureus, NCIM2901
Method: as §4, §5, §6

[11] = tested on: HeLa (Human cervical cancer cell line); test: In vitro cytotoxicity, Sulforhodamine B (SRB) assay; type: cell-based; settings: for GI50: Homo sapiens, HeLa, SRB assay, concentration range 50 to 0.78 μg/mL
Method: To examine the safety of the synthesized compounds, the compounds 4e and 4k were evaluated for their toxicity against the HeLa human cervical cancer cell line by a Sulforhodamine B (SRB) assay using Adriamycin as a standard drug.
In vitro cytotoxicity study of the synthesized compounds 4e and 4k was performed against HeLa (Human cervical cancer cell line) by Sulforhodamine B (SRB) assay using Adriamycin as positive control. The images were captured using an Eclipse Ti-S Inverted Research Microscope (Nikon, Tokyo, Japan). Image processing software used was NIS-Elements.

[12] = Swiss albino mice, single oral dose 100–2000 mg/kg

SMILES | MIC [1] | MIC [2] | MIC [3] | MIC [4] | MIC [5] | MIC [6] | MIC [7] | MIC [8] | MIC [9] | MIC [10] | GI50 [11] | melting point | further results
O=c1oc2ccccc2c(O)c1C(c1ccc(F)cc1F)N(C1CCCCC1)C1CCCCC1 (stereo not shown) [Compound 4e, 3-((Dicyclohexylamino)(2,4-difluorophenyl)methyl)-4-hydroxy-2H-chromen-2-one] | 26 µg/mL (≈ 55.6 µM) | 12 µg/mL (≈ 25.7 µM) | 28 µg/mL (≈ 59.9 µM) | 30 µg/mL (≈ 64.2 µM) | 28 µg/mL (≈ 59.9 µM) | 12 µg/mL (≈ 25.7 µM) | 12 µg/mL (≈ 25.7 µM) | 50 µg/mL (≈ 107 µM) | 48 µg/mL (≈ 103 µM) | 52 µg/mL (≈ 111 µM) | > 50 µg/mL |  | Convulsions (Swiss albino mice; [12]): N; Deaths (Swiss albino mice; [12]): N; Diarrhea (Swiss albino mice; [12]): N; Eye Lacrimation (Swiss albino mice; [12]): N; Hypnosis (Swiss albino mice; [12]): N; Muscle Spasms (Swiss albino mice; [12]): N; Normal Motor Activity (Swiss albino mice; [12]): Y; Pilo Erection (Swiss albino mice; [12]): N; Respiration Problems (Swiss albino mice; [12]): N; Salivation (Swiss albino mice; [12]): N; Sedation (Swiss albino mice; [12]): N; Stereotypy (Swiss albino mice; [12]): N; Straub Tail (Swiss albino mice; [12]): N; Toxicity (Swiss albino mice; [12]): N; Tremors (Swiss albino mice; [12]): N; lethal dose (Swiss albino mice; oral, mice, body weight, no mortality up to 2000 mg/kg): above 2000 mg/kg; MIC Bacillus subtilis [8]: 50 µg/mL (≈ 107 µM); MIC Escherichia coli [9]: 48 µg/mL (≈ 103 µM); MIC Staphylococcus aureus [10]: 52 µg/mL (≈ 111 µM); cell inhibition HeLa ([11]; up to 50 µg/mL concentration, Figure 4): did not take place
COc1cccc2c1C(=O)c1c(O)c3c(c(O)c1C2=O)C[C@@](O)(C(=O)CO)C[C@@H]3O[C@H]1C[C@H](N)[C@H](O)[C@H](C)O1 [Adriamycin, reference compound] |  |  |  |  |  |  |  |  |  |  | 0.5 µg/mL (≈ 0.92 µM) |  | 
O=c1oc2ccccc2c(O)c1C(c1ccc(F)cc1)N(C1CCCCC1)C1CCCCC1 (stereo not shown) [Compound 4d, 3-((Dicyclohexylamino)(4-fluorophenyl)methyl)-4-hydroxy-2H-chromen-2-one] | 30 µg/mL (≈ 66.7 µM) | 15 µg/mL (≈ 33.4 µM) | 28 µg/mL (≈ 62.3 µM) | 30 µg/mL (≈ 66.7 µM) | 28 µg/mL (≈ 62.3 µM) | 20 µg/mL (≈ 44.5 µM) | 18 µg/mL (≈ 40 µM) | 49 µg/mL (≈ 109 µM) | 50 µg/mL (≈ 111 µM) | 50 µg/mL (≈ 111 µM) |  | 122 to 124 °C | 
O=c1oc2ccccc2c(O)c1C(c1ccc(Cl)cc1)N(C1CCCCC1)C1CCCCC1 (stereo not shown) [Compound 4b, 3-((4-Chlorophenyl)(dicyclohexylamino)methyl)-4-hydroxy-2H-chromen-2-one] | 32 µg/mL (≈ 68.7 µM) | 14 µg/mL (≈ 30 µM) | 30 µg/mL (≈ 64.4 µM) | 34 µg/mL (≈ 73 µM) | 30 µg/mL (≈ 64.4 µM) | 15 µg/mL (≈ 32.2 µM) | 15 µg/mL (≈ 32.2 µM) | 50 µg/mL (≈ 107 µM) | 52 µg/mL (≈ 112 µM) | 54 µg/mL (≈ 116 µM) |  | 120 to 122 °C | 
O=c1oc2ccccc2c(O)c1C(c1cccs1)N(C1CCCCC1)C1CCCCC1 (stereo not shown) [Compound 4n, 3-((Dicyclohexylamino)(thiophen-2-yl)methyl)-4-hydroxy-2H-chromen-2-one] | 53 µg/mL (≈ 121 µM) | 32 µg/mL (≈ 73.1 µM) | 55 µg/mL (≈ 126 µM) | 58 µg/mL (≈ 133 µM) | 67 µg/mL (≈ 153 µM) | 38 µg/mL (≈ 86.8 µM) | 33 µg/mL (≈ 75.4 µM) | 74 µg/mL (≈ 169 µM) | 65 µg/mL (≈ 149 µM) | 72 µg/mL (≈ 165 µM) |  | 140 to 142 °C | 
O=c1oc2ccccc2c(O)c1C(c1ccccc1O)N(C1CCCCC1)C1CCCCC1 (stereo not shown) [Compound 4j, 3-((Dicyclohexylamino)(2-hydroxyphenyl)methyl)-4-hydroxy-2H-chromen-2-one] | 47 µg/mL (≈ 105 µM) | 32 µg/mL (≈ 71.5 µM) | 46 µg/mL (≈ 103 µM) | 38 µg/mL (≈ 84.9 µM) | 55 µg/mL (≈ 123 µM) | 30 µg/mL (≈ 67 µM) | 35 µg/mL (≈ 78.2 µM) | 72 µg/mL (≈ 161 µM) | 68 µg/mL (≈ 152 µM) | 72 µg/mL (≈ 161 µM) |  | 130 to 132 °C | 
